pIC50: −log10 of the molar value. The source made the active and inactive calls. The calls are words filed in the database; no cut-off is given here.
Experiments:
[1] = Half life in mouse liver microsomes by in vitro metabolic stability assay; assay type: ADME, Microsome; conditions: for t1/2: microsomes; for half-life: liver microsomes
Liver microsomes = experiment: (§1) Half life in human liver microsomes by in vitro metabolic stability assay; assay type: ADME, Microsome; conditions: microsomes
Mus musculus [2] = experiment: Antidepressant activity in mouse assessed as reduction in immobility duration pretreated 30 mins before at 30 mg/kg, po by tail suspension test; assay type: functional; set-up: scale not given: the % may be the effect or the level left
Cytochrome P450 2C19 = Cytochrome P450 2C19 (Homo sapiens, UniProt P33261); experiment: Inhibition of CYP2C19; assay type: ADME
Sequence of Cytochrome P450 2C19 (P33261 whole entry): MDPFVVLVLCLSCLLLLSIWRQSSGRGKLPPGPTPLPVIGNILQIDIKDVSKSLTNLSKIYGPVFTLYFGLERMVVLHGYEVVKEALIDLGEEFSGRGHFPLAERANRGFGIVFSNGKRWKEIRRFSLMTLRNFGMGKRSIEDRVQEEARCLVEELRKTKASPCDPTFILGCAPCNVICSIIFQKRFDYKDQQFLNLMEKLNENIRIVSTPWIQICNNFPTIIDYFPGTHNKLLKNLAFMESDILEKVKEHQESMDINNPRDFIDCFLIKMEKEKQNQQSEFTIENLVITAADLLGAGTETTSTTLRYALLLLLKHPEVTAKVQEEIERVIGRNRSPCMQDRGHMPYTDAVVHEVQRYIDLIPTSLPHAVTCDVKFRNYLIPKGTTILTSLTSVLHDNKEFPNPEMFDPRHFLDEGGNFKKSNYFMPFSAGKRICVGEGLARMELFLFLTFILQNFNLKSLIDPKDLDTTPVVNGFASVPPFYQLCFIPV

[3] = Inhibition of CYP1A; assay type: ADME
[4] = molecular target: T1, Voltage-gated inwardly rectifying potassium channel KCNH2 (Homo sapiens, UniProt Q12809)
T1 sequence (Q12809 whole entry): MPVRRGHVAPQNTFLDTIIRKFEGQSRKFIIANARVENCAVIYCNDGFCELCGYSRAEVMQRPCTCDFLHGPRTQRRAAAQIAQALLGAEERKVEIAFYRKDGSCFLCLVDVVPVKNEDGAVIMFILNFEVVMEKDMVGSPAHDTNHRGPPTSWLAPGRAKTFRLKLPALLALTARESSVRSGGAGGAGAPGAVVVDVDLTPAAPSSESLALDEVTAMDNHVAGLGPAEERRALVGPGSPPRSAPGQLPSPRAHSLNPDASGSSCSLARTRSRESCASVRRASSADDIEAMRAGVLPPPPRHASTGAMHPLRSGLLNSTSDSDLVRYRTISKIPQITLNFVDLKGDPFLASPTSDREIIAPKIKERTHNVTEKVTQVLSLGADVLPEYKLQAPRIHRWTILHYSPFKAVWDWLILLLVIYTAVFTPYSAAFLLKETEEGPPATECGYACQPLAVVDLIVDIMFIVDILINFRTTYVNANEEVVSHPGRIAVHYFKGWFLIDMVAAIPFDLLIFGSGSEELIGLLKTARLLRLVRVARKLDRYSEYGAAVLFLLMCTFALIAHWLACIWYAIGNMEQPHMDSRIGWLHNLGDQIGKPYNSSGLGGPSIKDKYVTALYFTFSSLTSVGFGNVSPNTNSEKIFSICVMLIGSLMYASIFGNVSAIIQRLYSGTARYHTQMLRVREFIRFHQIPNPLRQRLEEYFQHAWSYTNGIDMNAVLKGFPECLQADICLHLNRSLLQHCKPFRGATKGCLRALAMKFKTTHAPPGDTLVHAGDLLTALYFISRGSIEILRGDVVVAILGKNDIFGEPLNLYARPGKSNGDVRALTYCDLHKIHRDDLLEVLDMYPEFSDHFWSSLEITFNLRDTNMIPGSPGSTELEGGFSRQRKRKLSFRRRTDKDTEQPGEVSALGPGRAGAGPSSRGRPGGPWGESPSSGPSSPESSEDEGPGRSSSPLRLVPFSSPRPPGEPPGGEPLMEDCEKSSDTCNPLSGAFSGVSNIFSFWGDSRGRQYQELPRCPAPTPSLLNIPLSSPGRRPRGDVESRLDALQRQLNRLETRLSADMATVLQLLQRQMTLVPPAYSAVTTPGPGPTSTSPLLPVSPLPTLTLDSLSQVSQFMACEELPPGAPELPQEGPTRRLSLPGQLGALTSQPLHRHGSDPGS

Cytochrome P450 3A4 = Cytochrome P450 3A4 (Homo sapiens, UniProt P08684); experiment: Inhibition of CYP3A4; assay type: ADME
Sequence of Cytochrome P450 3A4 (P08684 whole entry): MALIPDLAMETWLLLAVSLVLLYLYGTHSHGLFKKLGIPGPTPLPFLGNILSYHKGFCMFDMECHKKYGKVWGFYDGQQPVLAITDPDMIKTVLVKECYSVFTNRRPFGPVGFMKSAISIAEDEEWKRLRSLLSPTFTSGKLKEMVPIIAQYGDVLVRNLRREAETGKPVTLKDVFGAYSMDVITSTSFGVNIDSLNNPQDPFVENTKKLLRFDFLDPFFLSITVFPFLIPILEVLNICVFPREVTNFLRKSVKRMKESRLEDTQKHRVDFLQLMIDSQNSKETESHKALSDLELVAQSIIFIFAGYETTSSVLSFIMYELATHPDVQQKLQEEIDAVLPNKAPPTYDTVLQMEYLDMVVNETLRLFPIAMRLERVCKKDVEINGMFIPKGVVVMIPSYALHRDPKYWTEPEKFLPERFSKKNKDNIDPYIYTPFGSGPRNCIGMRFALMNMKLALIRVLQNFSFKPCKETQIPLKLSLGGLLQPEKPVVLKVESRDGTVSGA

Mus musculus [5] = experiment: Antidepressant activity in mouse assessed as reduction in immobility duration pretreated 30 mins before at 100 mg/kg, po by tail suspension test; assay type: functional; set-up: scale not given: the % may be the effect or the level left
Cytochrome P450 2D6 = Cytochrome P450 2D6 (Homo sapiens, UniProt P10635); experiment: Inhibition of CYP2D6; assay type: ADME
Sequence of Cytochrome P450 2D6 (P10635 whole entry): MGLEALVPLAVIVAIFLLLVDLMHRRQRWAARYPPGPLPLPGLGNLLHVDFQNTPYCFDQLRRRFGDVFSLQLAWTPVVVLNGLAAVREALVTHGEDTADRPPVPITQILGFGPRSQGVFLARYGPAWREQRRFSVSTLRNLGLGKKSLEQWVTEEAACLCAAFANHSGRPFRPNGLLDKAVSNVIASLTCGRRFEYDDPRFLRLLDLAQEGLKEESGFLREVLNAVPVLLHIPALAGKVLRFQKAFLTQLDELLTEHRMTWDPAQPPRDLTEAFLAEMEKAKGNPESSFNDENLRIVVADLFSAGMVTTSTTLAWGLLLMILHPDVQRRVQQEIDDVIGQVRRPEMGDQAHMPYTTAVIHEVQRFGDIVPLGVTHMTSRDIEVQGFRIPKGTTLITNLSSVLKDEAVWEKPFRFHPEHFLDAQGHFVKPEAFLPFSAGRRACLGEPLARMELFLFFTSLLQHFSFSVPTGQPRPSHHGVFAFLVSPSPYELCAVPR

Cytochrome P450 2C9 = Cytochrome P450 2C9 (Homo sapiens, UniProt P11712); experiment: Inhibition of CYP2C9; assay type: ADME
Sequence of Cytochrome P450 2C9 (P11712 whole entry): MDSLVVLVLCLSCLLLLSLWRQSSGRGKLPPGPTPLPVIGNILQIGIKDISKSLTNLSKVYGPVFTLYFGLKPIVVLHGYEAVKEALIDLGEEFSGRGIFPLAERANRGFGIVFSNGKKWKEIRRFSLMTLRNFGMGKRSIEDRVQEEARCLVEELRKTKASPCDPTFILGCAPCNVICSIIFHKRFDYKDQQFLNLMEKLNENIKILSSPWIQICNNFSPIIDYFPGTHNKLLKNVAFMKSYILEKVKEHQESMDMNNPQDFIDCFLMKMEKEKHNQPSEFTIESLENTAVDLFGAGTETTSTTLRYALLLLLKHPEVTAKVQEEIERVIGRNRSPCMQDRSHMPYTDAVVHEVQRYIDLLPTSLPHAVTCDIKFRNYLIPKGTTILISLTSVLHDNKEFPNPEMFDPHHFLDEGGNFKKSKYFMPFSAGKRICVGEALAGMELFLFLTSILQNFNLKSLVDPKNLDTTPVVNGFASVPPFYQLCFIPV

[6] = as §1; assay type: ADME, Microsome; conditions: liver microsomes
[7] = molecular target: T1, Voltage-gated inwardly rectifying potassium channel KCNH2; remark: listed apart in the source
Brain [8] = experiment: Drug level in mouse brain at 3 mg/kg, po; assay type: functional, organism-based; set-up: dose 3 mg/kg
Plasma [9] = experiment: Drug level in mouse plasma at 10 mg/kg, po; assay type: functional, organism-based; set-up: dose 10 mg/kg
Mus musculus [10] = experiment: Antidepressant activity in po dosed mouse assessed as reduction of immobility duration measured by tail suspension test; assay type: functional, organism-based
Brain [11] = experiment: Drug level in mouse brain at 10 mg/kg, po; assay type: functional, organism-based; set-up: dose 10 mg/kg
Plasma [12] = experiment: Drug level in mouse plasma at 30 mg/kg, po; assay type: functional, organism-based; set-up: dose 30 mg/kg
Mus musculus [13] = experiment: Antidepressant activity in mouse assessed as reduction of immobility duration measured at first 5 mins time point at 10 or 30 mg/kg, po by tail suspension test; assay type: functional, organism-based; set-up: dose 30 mg/kg
Brain [14] = experiment: Drug level in mouse brain at 30 mg/kg, po; assay type: functional, organism-based; set-up: dose 30 mg/kg
Plasma [15] = experiment: Drug level in mouse plasma at 3 mg/kg, po; assay type: functional, organism-based; set-up: dose 3 mg/kg
[16] = molecular target: Sodium-dependent serotonin transporter (Homo sapiens, UniProt P31645); assay type: cell-based, LLC-PK1
Sequence of Sodium-dependent serotonin transporter (P31645 whole entry): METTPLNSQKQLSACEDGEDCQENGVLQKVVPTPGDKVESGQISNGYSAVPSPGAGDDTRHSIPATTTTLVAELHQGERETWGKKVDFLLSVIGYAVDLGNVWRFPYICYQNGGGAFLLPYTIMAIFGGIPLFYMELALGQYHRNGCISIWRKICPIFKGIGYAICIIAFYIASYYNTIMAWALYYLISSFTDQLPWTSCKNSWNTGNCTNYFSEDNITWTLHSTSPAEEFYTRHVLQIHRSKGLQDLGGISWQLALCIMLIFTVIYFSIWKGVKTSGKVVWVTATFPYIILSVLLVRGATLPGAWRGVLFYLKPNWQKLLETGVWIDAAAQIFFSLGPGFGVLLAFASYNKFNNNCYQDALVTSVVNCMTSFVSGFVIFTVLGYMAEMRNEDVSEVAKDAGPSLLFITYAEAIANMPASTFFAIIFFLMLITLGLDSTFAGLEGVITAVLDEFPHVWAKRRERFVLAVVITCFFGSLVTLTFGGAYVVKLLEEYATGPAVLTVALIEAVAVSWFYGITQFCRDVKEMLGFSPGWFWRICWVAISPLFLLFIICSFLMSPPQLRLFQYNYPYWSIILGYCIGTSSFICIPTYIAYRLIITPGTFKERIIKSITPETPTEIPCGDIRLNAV

[17] = molecular target: Sodium-dependent dopamine transporter (Homo sapiens, UniProt Q01959); assay type: cell-based, COS-7
Sequence of Sodium-dependent dopamine transporter (Q01959 whole entry): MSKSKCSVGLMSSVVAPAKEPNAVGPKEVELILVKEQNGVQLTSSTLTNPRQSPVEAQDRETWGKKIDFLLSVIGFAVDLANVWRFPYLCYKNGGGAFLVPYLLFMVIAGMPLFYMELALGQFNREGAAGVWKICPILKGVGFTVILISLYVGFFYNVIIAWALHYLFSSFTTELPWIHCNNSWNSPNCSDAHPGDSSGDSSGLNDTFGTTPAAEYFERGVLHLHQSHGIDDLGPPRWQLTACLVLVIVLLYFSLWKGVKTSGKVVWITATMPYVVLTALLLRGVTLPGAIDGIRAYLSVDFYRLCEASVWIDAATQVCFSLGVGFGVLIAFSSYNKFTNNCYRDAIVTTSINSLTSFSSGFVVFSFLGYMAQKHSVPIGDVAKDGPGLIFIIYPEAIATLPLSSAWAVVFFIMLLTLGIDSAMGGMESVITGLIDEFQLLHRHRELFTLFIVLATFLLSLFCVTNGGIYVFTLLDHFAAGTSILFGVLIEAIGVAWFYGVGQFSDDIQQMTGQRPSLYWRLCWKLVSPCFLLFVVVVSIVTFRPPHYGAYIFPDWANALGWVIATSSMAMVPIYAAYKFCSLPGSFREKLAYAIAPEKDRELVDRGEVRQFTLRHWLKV

[18] = molecular target: Sodium-dependent noradrenaline transporter (Homo sapiens, UniProt P23975)
Sequence of Sodium-dependent noradrenaline transporter (P23975 whole entry): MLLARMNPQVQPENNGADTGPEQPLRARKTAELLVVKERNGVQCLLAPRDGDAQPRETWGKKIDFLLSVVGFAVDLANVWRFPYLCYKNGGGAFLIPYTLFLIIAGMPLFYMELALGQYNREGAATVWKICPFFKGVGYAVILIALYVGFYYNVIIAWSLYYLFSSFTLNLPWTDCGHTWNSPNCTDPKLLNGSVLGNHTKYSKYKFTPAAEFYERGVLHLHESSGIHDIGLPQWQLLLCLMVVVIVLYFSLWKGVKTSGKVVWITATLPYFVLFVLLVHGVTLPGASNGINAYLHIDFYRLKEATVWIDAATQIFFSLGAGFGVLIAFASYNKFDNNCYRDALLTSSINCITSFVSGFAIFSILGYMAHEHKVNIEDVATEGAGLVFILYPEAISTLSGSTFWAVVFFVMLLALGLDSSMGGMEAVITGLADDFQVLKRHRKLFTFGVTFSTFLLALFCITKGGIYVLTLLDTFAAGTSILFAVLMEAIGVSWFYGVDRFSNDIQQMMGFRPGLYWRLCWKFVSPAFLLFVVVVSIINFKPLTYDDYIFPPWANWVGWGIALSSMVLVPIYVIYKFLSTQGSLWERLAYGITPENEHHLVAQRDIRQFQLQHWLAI

Mus musculus [19] = experiment: Antidepressant activity in mouse assessed as reduction in immobility duration pretreated 30 mins before at 10 mg/kg, po by tail suspension test; assay type: functional; set-up: scale not given: the % may be the effect or the level left

SMILES: CNC(C)C1(c2ccc(Cl)c(Cl)c2)CCCCC1 (racemic)
- t1/2 [1]: 154 min
- t1/2 (Liver microsomes): 281 min

SMILES: CC(N(C)C)C1(c2ccc(Cl)c(Cl)c2)CCCCC1.Cl (configuration not stated)
- Activity (Mus musculus [2]): 39%
- pIC50 (Cytochrome P450 2C19): < 4.60
- pIC50 [3]: < 4.60
- pIC50 [4]: 4.40
- pIC50 (Cytochrome P450 3A4): < 4.60
- Activity (Mus musculus [5]): 27%
- pIC50 (Cytochrome P450 2D6): < 4.60
- pIC50 (Cytochrome P450 2C9): < 4.60

SMILES: CC(C)CC(N(C)C)C1(c2ccc(Cl)c(Cl)c2)CCCCC1 (racemic)
- half-life [1]: > 300 min
- half-life [6]: 18 min

SMILES: CC(N)C1(c2ccc3ccccc3c2)CCCCC1 (single isomer, unassigned; enantiomer 2)
- t1/2 [1]: 14 min
- t1/2 (Liver microsomes): 164 min

SMILES: CC(N)C1(c2cccc3ccccc23)CCCCC1 (configuration not stated)
- half-life [1]: 80 min
- half-life [6]: > 300 min

SMILES: CC(C)CC(N)C1(c2ccc(Cl)c(Cl)c2)CCCCC1 (racemic)
- half-life [1]: 59 min
- half-life [6]: 83 min

SMILES: CC(N)C1(c2ccc3ccccc3c2)CCCCC1 (racemic)
- half-life [1]: 16 min
- half-life [6]: 140 min

SMILES: CNC(CC(C)C)C1(c2ccc(Cl)c(Cl)c2)CCCCC1 (racemic)
- half-life [1]: 18 min
- half-life [6]: 23 min

SMILES: CC(N(C)C)C1(c2ccc(Cl)c(Cl)c2)CCCCC1 (single isomer, unassigned; enantiomer 1)
- t1/2 [1]: 25 min
- pIC50 [7]: 4.40
- t1/2 (Liver microsomes): 28 min

SMILES: CC(N)C1(c2ccc(Cl)c(Cl)c2)CCCCC1 (single isomer, unassigned; enantiomer 1)
- t1/2 [1]: 84 min

SMILES: CNC(C)C1(c2ccc(Cl)c(Cl)c2)CCCCC1 (single isomer, unassigned; enantiomer 2)
- Drug uptake (Brain [8]): 145 ng/g
- Cp (Plasma [9]): 44 ng/mL
- Activity (Mus musculus [10]): Dose-dependent effect
- Drug uptake (Brain [11]): 782 ng/g
- Cp (Plasma [12]): 544 ng/mL
- Activity (Mus musculus [13]): inactive
- Drug uptake (Brain [14]): 7070 ng/g
- Cp (Plasma [15]): 9 ng/mL

SMILES: CNC(C)C1(c2ccc3ccccc3c2)CCCCC1 (stereo in doubt; 29)
- half-life [1]: 12 min
- half-life [6]: 90 min

SMILES: CC(N)C1(c2cccs2)CCCCC1 (configuration not stated)
- half-life [1]: 137 min
- half-life [6]: 152 min

SMILES: CC(N(C)C)C1(c2ccc3ccccc3c2)CCCCC1 (single isomer, unassigned; form 1)
- t1/2 [1]: 19 min
- pIC50 [7]: 5.37
- t1/2 (Liver microsomes): 32 min

SMILES: CNC(C)C1(c2ccc3ccccc3c2)CCCCC1 (single isomer, unassigned; enantiomer 2)
- t1/2 [1]: 11 min
- t1/2 (Liver microsomes): 101 min

SMILES: CC(N(C)C)C1(c2ccc3ccccc3c2)CCCCC1 (single isomer, unassigned; form 2)
- Drug uptake (Brain [8]): 25 ng/g
- Cp (Plasma [9]): 13 ng/mL
- Activity (Mus musculus [10]): Dose-dependent effect
- Drug uptake (Brain [11]): 130 ng/g
- Cp (Plasma [12]): 68 ng/mL
- Activity (Mus musculus [13]): inactive
- Drug uptake (Brain [14]): 564 ng/g
- Cp (Plasma [15]): 2 ng/mL

SMILES: CC(N)C1(c2ccc(OC(C)(C)C)cc2)CCCCC1 (configuration not stated)
- pIC50 [16]: 5.15
- pIC50 [17]: 5.82
- pIC50 [18]: 5.30

SMILES: CC(N(C)C)C1(c2ccc3ccccc3c2)CCCCC1 (racemic)
- half-life [1]: 22 min
- half-life [6]: 33 min

SMILES: CC(N)C1(c2ccc3ccccc3c2)CCCCC1 (single isomer, unassigned)
- t1/2 [1]: 11 min
- t1/2 (Liver microsomes): 150 min

SMILES: CC(N(C)C)C1(c2ccc(Cl)c(Cl)c2)CCCCC1 (single isomer, unassigned)
- t1/2 [1]: 28 min

SMILES: CC(N)C1(c2ccc(-c3ccccc3)cc2)CCCCC1 (configuration not stated)
- half-life [1]: 40 min
- half-life [6]: 248 min

SMILES: CNC(C)C1(c2ccc(Cl)c(Cl)c2)CCCCC1 (stereo in doubt; 24)
- t1/2 [1]: 52 min
- t1/2 (Liver microsomes): 53 min

SMILES: CC(N(C)C)C1(c2ccc3ccccc3c2)CCCCC1.Cl (single isomer, unassigned; form 2)
- Activity (Mus musculus [2]): 30%
- pIC50 (Cytochrome P450 2C19): < 5.30
- pIC50 [3]: < 4.60
- Activity (Mus musculus [19]): 14%
- pIC50 [4]: 5.37
- pIC50 (Cytochrome P450 3A4): < 5.30
- Activity (Mus musculus [5]): 37%
- pIC50 (Cytochrome P450 2D6): < 5.30
- pIC50 (Cytochrome P450 2C9): < 5.30

SMILES: CC(N)C1(c2ccc(Cl)c(Cl)c2)CCCCC1 (racemic)
- t1/2 [1]: 163 min
- half-life [6]: > 300 min

SMILES: CC(N(C)C)C1(c2ccc(Cl)c(Cl)c2)CCCCC1 (configuration not stated)
- Drug uptake (Brain [8]): 19 ng/g
- Cp (Plasma [9]): 12 ng/mL
- Activity (Mus musculus [10]): Dose-dependent effect
- Drug uptake (Brain [11]): 114 ng/g
- Cp (Plasma [12]): 103 ng/mL
- Activity (Mus musculus [13]): inactive
- Drug uptake (Brain [14]): 845 ng/g
- Cp (Plasma [15]): 2 ng/mL

SMILES: CC(N(C)C)C1(c2ccc(Cl)c(Cl)c2)CCCCC1 (racemic)
- half-life [1]: 22 min
- half-life [6]: 23 min

SMILES: CCC(N)C1(c2ccc(Cl)c(Cl)c2)CCCCC1 (racemic)
- half-life [1]: 56 min
- half-life [6]: 96 min

SMILES: CNC(C)C1(c2ccc(Cl)c(Cl)c2)CCCCC1.Cl (single isomer, unassigned; enantiomer 2)
- Activity (Mus musculus [2]): 3.3%
- pIC50 [3]: < 4.60
- Activity (Mus musculus [19]): 13%
- Activity (Mus musculus [5]): 25%
- pIC50 (Cytochrome P450 2D6): 5.07

SMILES: CNC(C)C1(c2ccc(Cl)c(Cl)c2)CCCCC1 (single isomer, unassigned)
- t1/2 [1]: 54 min
- t1/2 (Liver microsomes): 71 min

SMILES: CC(N)C1(c2ccc(OC(F)(F)F)cc2)CCCCC1 (configuration not stated)
- pIC50 [16]: 6.96
- half-life [1]: 100 min
- half-life [6]: > 300 min

SMILES: CC(N(C)C)C1(c2ccc3ccccc3c2)CCCCC1 (single isomer, unassigned; enantiomer 2)
- t1/2 [1]: 23 min

From ChEMBL document CHEMBL1681689, “Discovery of N-methyl-1-(1-phenylcyclohexyl)ethanamine, a novel triple serotonin, norepinephrine and dopamine reuptake inhibitor” (Bioorg Med Chem Lett, 2011)
